Reference: patent US7888393B2, “Transdermal compositions” (Microdermis Corporation, priority 2002, dated 2011)

Experiments:
[1] = test system: open wounds; experiment: Seventh transdermal composition on open wounds of patients (healing, pain); assay type: in vivo
Text: As one skilled in the art can well appreciate there are endless numbers of combinations that can be made to create the desired skin effects. For example, when the quaternary ammonium salt, such as […] (DDAC), and the like, is present in a neutral pH in the first transdermal composition of the present invention described hereinabove, the formic acid from the bug bite is more effectively and more rapidly neutralized. On the other hand, when the quaternary ammonium salt, e.g., DDAC, is present in the seventh transdermal composition of the present invention, the healing rate on open wounds improves. However, when the quaternary ammonium salt, e.g., DDAC, is not substantially converted to the first reaction product, some of the patients, approximately 25% thereof, feel pain.

[2] = pH of quaternary compounds, fatty acids and their reaction products in water (calibrated pH meter); assay type: physicochemical; conditions: for pH of product compound (reaction of quaternary compound with fatty acid): molar ratio DDAC to fatty acid 1:1, 70-75 °C, after 10 minutes
Protocol: Example 2 was repeated employing the fatty acids; Conjugated Linoleic Acid (CLA); eicosapentaenoic acid (EPA); and gamma linolenic acid (GLA), were all dissolved in water and the pH of the resulting solutions were measured with a calibrated pH meter.
Three solutions of DDAC (188.2 g) in distilled water (2,000 g) were contacted with masses of CLA, EPA and GLA, such that the molar ratio of DDAC to each of the aforementioned fatty acids was 1:1 at a temperature of 70° C. to 75° C. and after 10 minutes the pH of the reaction products of each of these products was measured.
Merquat 550 is a trademark owned by Calgon, Inc. its manufacturer, for a proprietary cationic polymer having a repeating unit molecular weight of 680 and an overall molecular weight of about 10,000. The pH of these first transdermal compositions were measured. […] Ten minutes after acid addition, the pH of the product composition were measured.

[3] = Stability of benzethonium chloride added to the transdermal mixtures; assay type: physicochemical
Protocol: When benzethonium chloride is added in therapeutically effective amounts to the mixtures described herein, it is stable if added at ambient temperature at a pH greater than 6. On the other hand, it is not stable if added at temperatures below the Freezing Zone and above ambient temperature at a pH of about 7.5 to about 8.

[4] = DDAC split between first reaction product (80%) and unreacted DDAC (20%)

Compound: CCCCCCCCCCCCCCCCCC[N+](C)(C)CCCCCCCCCCCCCCCCCC.[Cl-] [DDAC, dimethyl distearyl ammonium chloride]
- Patients who feel pain ([1]; DDAC not substantially converted to the first reaction product): approximately 25%
- Healing [1, 4]: rapid healing
- Pain [1, 4]: did not feel pain
- pH of quaternary compound in water ([2]; DDAC 188.2 g in distilled water 2,000 g): 5.38

Compound: CC/C=C\C/C=C\C/C=C\CCCCCCCC(=O)[O-].CCCCCCCCCCCCCCCCCC[N+](C)(C)CCCCCCCCCCCCCCCCCC [DDAL, Dimethyl Distearyl Ammonium Linolenate]
- pH of product compound (reaction of quaternary compound with fatty acid) [2]: 2.28

Compound: CC(C)(C)CC(C)(C)c1ccc(OCCOCC[N+](C)(C)Cc2ccccc2)cc1 [benzethonium chloride]
- Stability of benzethonium chloride in the mixture ([3]; added above the Freezing Zone, tip speed greater than Critical Shear Rate, pH about 7.5 to about 8): stable
- Stability of benzethonium chloride in the mixture ([3]; added at ambient temperature at pH greater than 6): stable
- Stability of benzethonium chloride in the mixture ([3]; added below the Freezing Zone and above ambient temperature at pH about 7.5 to about 8): not stable

Compound: Conjugated Linoleic Acid [CLA]
- pH of fatty acid dissolved in water ([2]; fatty acid alone in water): (4.00)

Compound: benzalkonium chloride [BAC]
- pH of Quat and Stearic Acid ([2]; 70-75 °C, stearic acid 40 g, ten minutes after acid addition): 2.40
- pH of quaternary compound ([2]; mixed with distilled water (2,000 g), before heating): 7.83

Compound: dimethyl distearyl ammonium stearate [DDAS]
- pH of product compound (reaction of quaternary compound with fatty acid) [2]: 2.38
